Experimental data published in EP2276483B1, “SOLID FORMS COMPRISING (+)-2-[1-(3-ETHOXY-4-METHOXYPHENYL)-2-METHYLSULFONYLETHYL]-4-ACETYLAMINOISOINDOLINE-1,3-DIONE, COMPOSITIONS THEREOF, AND USES THEREOF” (CELGENE CORPORATION, priority 2008, dated 2009).

Assays:
[1] = test system: LPS-induced pulmonary neutrophilia; experiment: LPS-induced lung neutrophilia ferret model; format: in vivo, ferrets (Mustela Pulorius Euro); conditions: Mustela putorius, po; conscious ferret, p.o.; read-out: Inhibition of LPS-induced neutrophilia (ED50 mg/kg)
Excerpt: The conscious ferret model has been used to investigate anti-inflammatory, emetic and behavioral effects of PDE4 inhibitors when administered by the oral (p.o.) route. From these experiments, a therapeutic index (TI) for each PDE4 inhibitor may be determined. The TI has been calculated by dividing the threshold dose for causing emetic episodes and behavioral changes by the anti-inflammatory dose (dose that causes 50% inhibition of the LPS-induced neutrophilia).
Male ferrets (Mustela Pulorius Euro, weighing 1 - 2 kg). Ferrets were supplied either by Bury Green Farm or Misay Consultancy. Following transport, the animals were allowed to acclimatize in the holding rooms for a period of not less than seven days. The diet comprised SDS diet C pelleted food given ad lib with Whiskers™ cat food given three times per week. Water was pasteurized animal grade drinking water and was changed daily. […]
Thirty minutes after p.o. dosing with compound or vehicle control, the ferrets were placed into sealed Perspex containers and exposed to an aerosol of LPS (100 µg/ml) for 10 minutes. […] Observation continued for a period of at least 2.5 hours post p.o. dosing and emetic episodes and behavioral changes were recorded. […]
The bronchoalveolar lavage (BAL) samples were centrifuged at 1,500 rpm for 5 minutes. […] From this, the total number of neutrophils in the BAL was determined. […]

human PDE2 = human PDE2 (Homo sapiens, UniProt O00408); experiment: PDE2 enzyme assay; format: biochemical
Sequence of human PDE2 (O00408 whole entry): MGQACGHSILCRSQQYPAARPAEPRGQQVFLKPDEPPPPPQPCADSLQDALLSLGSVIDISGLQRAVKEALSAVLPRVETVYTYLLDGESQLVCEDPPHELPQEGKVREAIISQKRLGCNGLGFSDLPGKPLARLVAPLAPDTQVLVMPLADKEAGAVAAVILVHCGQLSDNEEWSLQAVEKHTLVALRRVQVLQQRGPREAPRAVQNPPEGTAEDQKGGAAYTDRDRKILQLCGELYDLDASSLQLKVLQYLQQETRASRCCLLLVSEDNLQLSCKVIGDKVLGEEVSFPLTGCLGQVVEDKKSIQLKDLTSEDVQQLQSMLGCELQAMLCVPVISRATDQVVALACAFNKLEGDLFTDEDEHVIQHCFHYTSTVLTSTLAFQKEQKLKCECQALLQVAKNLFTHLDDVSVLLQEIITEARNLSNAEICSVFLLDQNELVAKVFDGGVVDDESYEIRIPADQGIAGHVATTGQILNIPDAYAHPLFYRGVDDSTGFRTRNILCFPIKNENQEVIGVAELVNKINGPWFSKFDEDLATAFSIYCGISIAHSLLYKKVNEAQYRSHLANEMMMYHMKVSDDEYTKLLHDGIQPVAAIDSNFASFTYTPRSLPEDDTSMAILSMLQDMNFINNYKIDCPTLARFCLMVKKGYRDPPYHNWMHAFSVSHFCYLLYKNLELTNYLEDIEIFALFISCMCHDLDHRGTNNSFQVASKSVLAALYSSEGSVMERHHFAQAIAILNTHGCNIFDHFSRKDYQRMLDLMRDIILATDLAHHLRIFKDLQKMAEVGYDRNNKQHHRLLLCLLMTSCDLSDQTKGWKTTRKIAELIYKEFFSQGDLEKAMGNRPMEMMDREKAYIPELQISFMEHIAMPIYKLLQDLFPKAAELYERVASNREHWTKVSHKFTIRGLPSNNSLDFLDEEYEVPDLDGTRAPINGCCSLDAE

## CCOc1cc(C(CS(C)(=O)=O)N2C(=O)c3cccc(NC(C)=O)c3C2=O)ccc1OC (single isomer, unassigned; (+)) [Compound A, (+)-2-[1-(3-ethoxy-4-methoxyphenyl)-2-methylsulfonylethyl]-4-acetylaminoisoindoline-1,3-dione]
[1]
  ED50: 0.8 mg/kg
Human PDE2; from above data
  PDE Specificity Ratio PDE4/PDE2: >10000 fold
Human PDE2; read-out: PDE2(% inhib at 10 µM)
  inhibition at 10 µM: 6%
